# Tests used:
# human brain MAO B = biological target: T1, human brain MAO B (Homo sapiens, UniProt P27338); test: MAO B activity in human brain homogenate (14C-PEA substrate); assay type: biochemical
# T1 construct: Human and rat caudate nuclei were homogenized in 0.32M sucrose; from tissue; host or cells: human caudate nucleus homogenate (1%)
# T1 sequence (P27338 1-520): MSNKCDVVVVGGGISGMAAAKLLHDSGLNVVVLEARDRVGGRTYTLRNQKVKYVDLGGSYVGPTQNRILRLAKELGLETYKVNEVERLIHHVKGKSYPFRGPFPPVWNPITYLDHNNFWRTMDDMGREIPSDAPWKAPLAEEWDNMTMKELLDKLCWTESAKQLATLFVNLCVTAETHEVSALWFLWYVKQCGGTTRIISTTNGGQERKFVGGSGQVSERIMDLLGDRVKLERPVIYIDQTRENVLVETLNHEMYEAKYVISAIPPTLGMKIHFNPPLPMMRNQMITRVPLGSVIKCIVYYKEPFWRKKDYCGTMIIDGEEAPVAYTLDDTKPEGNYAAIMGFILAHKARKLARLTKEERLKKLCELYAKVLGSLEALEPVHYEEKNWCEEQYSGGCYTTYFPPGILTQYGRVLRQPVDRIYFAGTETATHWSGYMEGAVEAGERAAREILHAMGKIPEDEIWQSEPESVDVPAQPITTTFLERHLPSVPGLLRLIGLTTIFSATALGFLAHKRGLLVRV
# human brain MAO A = biological target: T2, human brain MAO A (Homo sapiens, UniProt P21397); test: MAO A activity in human brain homogenate (14C-5HT substrate); assay type: biochemical; settings: substrate 14C-5HT; SD 15.1
# T2 construct: Human and rat caudate nuclei were homogenized in 0.32M sucrose; from tissue; host or cells: human caudate nucleus homogenate (1%)
# T2 sequence (P21397 1-527): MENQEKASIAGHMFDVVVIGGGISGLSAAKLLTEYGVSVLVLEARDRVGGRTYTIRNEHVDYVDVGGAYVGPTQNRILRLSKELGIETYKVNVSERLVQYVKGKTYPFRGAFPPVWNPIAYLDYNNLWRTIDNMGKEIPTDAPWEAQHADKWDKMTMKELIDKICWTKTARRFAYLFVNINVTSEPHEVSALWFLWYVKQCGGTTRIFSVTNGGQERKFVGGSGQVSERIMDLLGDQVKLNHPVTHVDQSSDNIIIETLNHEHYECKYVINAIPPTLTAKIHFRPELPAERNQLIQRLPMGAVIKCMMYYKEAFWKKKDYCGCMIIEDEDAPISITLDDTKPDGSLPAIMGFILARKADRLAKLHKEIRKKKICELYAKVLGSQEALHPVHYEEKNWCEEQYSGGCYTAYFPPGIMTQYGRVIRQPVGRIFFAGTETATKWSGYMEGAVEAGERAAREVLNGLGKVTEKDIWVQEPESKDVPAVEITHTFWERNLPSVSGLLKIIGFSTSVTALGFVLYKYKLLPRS
# rat brain MAO B = biological target: T3, rat brain MAO B (Rattus norvegicus, UniProt P19643); test: MAO B activity in rat brain homogenate (14C-PEA substrate); assay type: biochemical
# T3 construct: Human and rat caudate nuclei were homogenized in 0.32M sucrose; from tissue; host or cells: rat caudate nucleus homogenate (1%)
# T3 sequence (P19643 1-520): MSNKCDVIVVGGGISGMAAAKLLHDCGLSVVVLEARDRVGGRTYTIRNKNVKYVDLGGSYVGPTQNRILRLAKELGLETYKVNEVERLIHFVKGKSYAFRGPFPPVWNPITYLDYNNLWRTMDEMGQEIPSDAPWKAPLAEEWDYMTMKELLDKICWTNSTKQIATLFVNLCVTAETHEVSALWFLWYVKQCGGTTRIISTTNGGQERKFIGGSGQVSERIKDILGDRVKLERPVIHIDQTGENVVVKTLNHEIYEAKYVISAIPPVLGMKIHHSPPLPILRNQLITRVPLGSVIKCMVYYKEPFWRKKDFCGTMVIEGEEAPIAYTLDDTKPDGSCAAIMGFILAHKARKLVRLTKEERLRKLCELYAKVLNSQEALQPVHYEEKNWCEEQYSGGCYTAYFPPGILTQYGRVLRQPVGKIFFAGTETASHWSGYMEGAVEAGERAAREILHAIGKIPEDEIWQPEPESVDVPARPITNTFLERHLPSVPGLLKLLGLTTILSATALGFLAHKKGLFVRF
# cancer patients = settings: cited from earlier work
# [1] = tested on: PEA induced rotations in unilateral nigral lesioned rats; test: Rotational behavior in unilateral substantia nigra 6-hydroxydopamine lesioned rats; assay type: in vivo, rat
# [2] = tested on: reserpine-induced akinesia; test: PEA reversal of reserpine-induced akinesia in rats; assay type: in vivo, rat
# human platelet MAO B = biological target: T4, human platelet MAO B (Homo sapiens, UniProt P27338); test: Inhibition of platelet MAO B activity in vitro (human platelets); assay type: biochemical
# T4 construct: The platelet pellet was resuspended in 5.0 ml of 0.1 M phosphate buffer with pH 7.4 by sonication; from tissue; host or cells: human blood platelets from normal volunteers, sonicated
# T4 sequence (P27338 1-520): T1 sequence (P27338 1-520)
# [3] = tested on: rat caudate nucleus (H^3-spiroperidol); test: Displacement of H^3-spiroperidol from rat caudate nucleus; assay type: binding; settings: in vitro
# [4] = tested on: apomorphine and amphetamine induced locomotor changes; test: Reversal of apomorphine and amphetamine induced locomotor changes in rats; assay type: in vivo, rat
# Text: Thereafter, an analysis of a PAPD was undertaken in vitro and in vivo beginning with antipsychotic (neuroleptic) and antidepressant activity. […] The two distinct forms of the enzyme have been designated as type A (serotonin metabolizing and clorgyline sensitive) and type […] metabolizing and clorgyline insensitive). Based on the stereochemical model, it was predicted that PAPD's effect on MAO type B would be greater than its effect on MAO type A. In vitro data has substantiated this prediction.
# rat brain MAO A = biological target: T5, rat brain MAO A (Rattus norvegicus, UniProt P21396); test: MAO A activity in rat brain homogenate (14C-5HT substrate); assay type: biochemical; settings: substrate 14C-5HT; SD ±6.0
# T5 construct: Human and rat caudate nuclei were homogenized in 0.32M sucrose; from tissue; host or cells: rat caudate nucleus homogenate (1%)
# T5 sequence (P21396 1-526): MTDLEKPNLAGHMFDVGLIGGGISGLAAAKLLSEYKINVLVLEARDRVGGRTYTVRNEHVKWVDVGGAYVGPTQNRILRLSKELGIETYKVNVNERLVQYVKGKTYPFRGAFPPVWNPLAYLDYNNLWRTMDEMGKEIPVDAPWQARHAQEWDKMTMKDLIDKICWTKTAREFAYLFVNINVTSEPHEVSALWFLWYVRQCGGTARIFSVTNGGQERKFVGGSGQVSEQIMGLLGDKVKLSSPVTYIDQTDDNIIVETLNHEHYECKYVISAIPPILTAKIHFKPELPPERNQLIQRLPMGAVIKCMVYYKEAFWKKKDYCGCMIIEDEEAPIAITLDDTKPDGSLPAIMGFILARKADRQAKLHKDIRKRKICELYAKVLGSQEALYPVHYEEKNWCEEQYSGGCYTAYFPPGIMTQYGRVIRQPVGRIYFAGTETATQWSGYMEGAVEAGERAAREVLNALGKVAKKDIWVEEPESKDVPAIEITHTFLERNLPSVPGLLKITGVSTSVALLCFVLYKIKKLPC
# [5] = tested on: PEA induced stereotype behavior; test: PEA induced stereotype behavior in rats; assay type: in vivo, rat
# [6] = PAPD (200 mg/kg by context), 1 h prior to PEA
# [7] = clorgyline 5 mg/kg, 1 h prior to PEA
# [8] = deprenyl 10 mg/kg, 1 h prior to PEA
# [9] = pargyline 50 mg/kg, prior to PEA
smiles,measurement,setting,value
"O=C1CCC(NC(=O)Cc2ccccc2)C(=O)N1 (centres unmarked) [PAPD, 3-N-phenylacetylamino-2,6-piperidinedione]",selectivity for type B MAO,human brain MAO B; human brain tissue,five times more selective
same,IC50,"human brain MAO B; substrate 14C-PEA, PAPD SD 3.7",19.9 µM
same,IC50,human brain MAO A,139 µM
same,inhibition of MAO type B versus MAO type A,"rat brain MAO B; in vitro and in vivo analyses, summary",inhibition of MAO type B greater than that for MAO type A
same,selectivity: concentrations inhibiting MAO B compared with MAO A,rat brain MAO B; rat brain,10 times less
same,IC50,"rat brain MAO B; substrate 14C-PEA, SD ±2.1",8 µM
same,toxic effects,"cancer patients; human, in vivo",lack of toxic effects
same,mood,cancer patients; some cancer patients,elevation of mood
same,need for analgesia,cancer patients; some cancer patients,diminished need for analgesia
same,number and duration of PEA rotations,"[1]; PAPD 200 mg/kg, 1 h before PEA",increased the number and duration of PEA rotations
same,number or duration of PEA rotations,"[1]; PAPD 50, 100 and 150 mg/kg, 1 h before PEA",did not affect the number or duration of PEA rotations
same,effect on duration of PEA's reversal of akinesia,"[2]; PAPD 200 mg/kg, 1 h prior to PEA",potentiated the duration of PEA's reversal of akinesia
same,effect on reversal induced by PEA,"[2]; PAPD 50 and 100 mg/kg, 1 h prior to PEA",antagonized the reversal induced by PEA
same,duration of activity with increased locomotion,[2]; [6],50 min
same,latency to reversal of akinesia,[2]; [6],less than five minutes
same,serotonin behaviors,"[2]; PAPD (200 mg/kg by context), interspersed with locomotor activity",headweaving and tremors
same,maximal inhibition of platelet MAO B,human platelet MAO B; above 1.0 mM,100%
same,"inhibition of platelet MAO, relative potency",human platelet MAO B; compared with PAPD / pargyline,less potent than pargyline
same,IC50,"human platelet MAO B; platelets from 6 subjects, duplicate assays, SD 34.5×10^-6",63.8 µM
same,inhibition with increasing concentration,human platelet MAO B; range of 0.1 to 1.0 mM,linear inhibition
same,platelet MAO inhibition,human platelet MAO B; standard platelet analysis,significant degree of MAO inhibition
same,displacement of H^3-spiroperidol,[3],inability to displace H^3 -spiroperidol from rat caudate nucleus
same,reversal of apomorphine and amphetamine induced locomotor changes,[4],inability to reverse apomorphine and amphetamine induced locomotor changes in rats
same,IC50,rat brain MAO A,93.3 µM
same,duration of stereotype behavior,[5]; 4 and 24 hours after PAPD (both groups),30 min
same,animals displaying forepaw padding/sniffing/headweaving,[5]; 4 hours after PAPD,50%
same,animals displaying forepaw padding/sniffing/headweaving,[5]; 24 hours after PAPD,66%
same,effect on PEA behavior,[5]; PAPD 50 and 100 mg/kg pretreatment,no effects on PEA behavior were noticed
same,animals with forepaw padding with continuous sniffing as well as headweaving,[5]; PAPD 200 and 400 mg/kg,100%
same,duration of stereotype behavior,[5]; PAPD 200 and 400 mg/kg,45 to 50 min
same,other stereotype behavior,[5]; PAPD 200 and 400 mg/kg,headbobbing
same,animals with forepaw padding with continuous sniffing as well as headweaving,[5]; PAPD one and two hours prior to PEA,100%
same,duration of stereotype behavior,[5]; PAPD one hour prior to PEA,45 min
same,duration of stereotype behavior,[5]; PAPD two hours prior to PEA,55 min
"NCCc1ccccc1 [PEA, phenylethylamine]",duration of rotations,[1]; PEA 50 mg/kg alone,30 min
same,ipsilateral turning,"[1]; rat, in vivo",induced ipsilateral turning
same,duration of activity / reversal of akinesia,[2]; PEA 50 mg/kg i.p. alone,30 min
same,latency to reversal of akinesia,"[2]; PEA 50 mg/kg i.p. alone, reserpine 10 mg/kg i.p.",less than five minutes
same,stereotype behavior,[5]; PEA 50 mg/kg alone,no stereotype behavior was observed
"C#CCN(C)CCCOc1ccc(Cl)cc1Cl [clorgyline, reference compound]",activity compared with PEA control animals,[2]; [7],not as active as PEA control animals
same,duration of behavior,[2]; [7],45 min
same,latency to reversal of akinesia,[2]; [7],less than five minutes
same,serotonin type behavior,[2]; [7],"splayed hind legs, myoclonic jerks and headweaving"
same,forepaw padding syndrome,[5]; clorgyline 5 mg/kg,did not produce this syndrome
same,other stereotype behavior,[5]; clorgyline 5 mg/kg,stereotyped headbobbing
same,"animals with forepaw padding, sniffing, headweaving and retropulsion","[5]; clorgyline 10 mg/kg, 1 h prior to PEA",100%
same,duration of stereotype behavior,"[5]; clorgyline, both doses (5 and 10 mg/kg)",30 min
"C#CCN(C)C(C)Cc1ccccc1 (centres unmarked) [deprenyl, reference compound]",duration of PEA rotations,[1]; [8],increased the duration of PEA rotations
same,number of ipsilateral turns induced by PEA,"[1]; rat, in vivo",doubled the number of ipsilateral turns
same,animals with forepaw padding with continuous sniffing and headweaving,"[5]; deprenyl 5 mg/kg, 1 h prior to PEA",50%
same,animals with forepaw padding with continuous sniffing and headweaving,[5]; [8],100%
same,duration of stereotype behavior,"[5]; deprenyl, 1 h prior to PEA",60 min
same,other stereotype behavior,"[5]; deprenyl, 1 h prior to PEA",no other stereotype behavior observed
C#CCN(C)Cc1ccccc1 [pargyline],duration of activity with increased locomotion,[2]; [9],45 min
same,latency to reversal of akinesia,[2]; [9],less than five minutes
"NNCCc1ccccc1 [phenelzine, reference compound]",potency relative to PAPD,human brain MAO B,two orders of magnitude more potent than PAPD

# From patent publication US4705796A, “Use of 3-N-phenylacetylamino-2,6-piperidinedione for treatment of neuropsychiatric disorders” (priority 1986, dated 1987)
